Laboratory results as given in patent US20060111437A1, “Hyperlipemia therapeutic agent” (Kowa Co., Ltd., priority 2004, published 2006).

Assay: Effect on blood triglyceride in rats after repeated oral administration
Type: in vivo
Settings: male Wistar rats; orally once a day for 21 days; pitavastatin calcium 10 mg/kg and/or EPA-E 1000 mg/kg; blood taken after fasting for 18 hours since final administration; FIG. 1
Protocol: Male Wistar rats aged 6 weeks (Japan Medical Science Experimental Animal Co., Ltd.) were tested. They were fed in a room maintained in a bright and dark cycle (bright duration by a room light: 7:00 a.m. to 7:00 p.m.) at a temperature of 23±3° C. and a humidity of 55±15% through an experimental duration and allowed to freely take a chow (CE-2; Nippon Clear Co., Ltd.) and city water. Pitavastatin calcium was suspended in a 0.5 mass % aqueous solution of sodium carboxymethyl cellulose (Iwai Kagaku Yakuhin Co., Ltd.) and controlled so that a dose was 2 ml/kg. Pitavastatin calcium contained 9.43 mass % of water, and therefore an amount as 1.1 mass time much as the dose was weighed to correct the practical dose. The suspension was refrigerated (4° C.) in a shaded bottle, and it was prepared every 7 days. EPA-E was taken from Epadel capsule (Dainippon Seiyaku Co., Ltd.) in use, suspended in refined water and controlled so that a dose was 2 ml/kg. […] The differences of multiple groups between the control group and the drug-administered groups were analyzed using Dunnett's multiple comparison test, preceded by Bartlett's analysis of variance.

Q: For `O=C([O-])C[C@H](O)C[C@H](O)/C=C/c1c(C2CC2)nc2ccccc2c1-c1ccc(F)cc1.O=C([O-])C[C@H](O)C[C@H](O)/C=C/c1c(C2CC2)nc2ccccc2c1-c1ccc(F)cc1.[Ca+2]` [pitavastatin calcium], which “triglyceride concentration in blood” value is on record?
A: tended to be lowered
